Measured values from paper PMC2904697, “A Screen for Kinetochore-Microtubule Interaction Inhibitors Identifies Novel Antitubulin Compounds” (PLoS ONE, 2010).

Columns and labels:
[1] = test system: taxol-stabilized MTs; test: Compound-based depolymerization of taxol-stabilized MTs in vitro; type: biochemical, bovine; details: compound 50 µmol/l; for Taxol-stabilized MT population depolymerized: taxol (20 µmol/l)-stabilized MTs
Procedure: To test this hypothesis, we treated HeLa cells with 0.5 µmol/l taxol, thereby arresting them in metaphase with stabilized spindles. […] To quantify the taxol-mediated inhibition of MT disassembly by compound B, we measured in vitro the depolymerization of taxol (20 µmol/l)-stabilized MTs following incubation with 50 µmol/l compound B (the screen condition). Nocodazole and maytansine (both at 50 µmol/l) were included as controls. At 50 µmol/l, compound B depolymerized 3% of the taxol-stabilized MT population, while nocodazole and maytansine depolymerized 11% and 31% of the taxol-treated MTs, respectively (Fig. 4B). […] This finding further supports our hypothesis that the interaction of compound B with the stabilized MTs must have prevented the Ndc80^488 complex from establishing contact with the MT surface.
MTs were polymerized (30 min, 37°C) from a 1∶10 mixture of rhodamine-labeled:unlabeled bovine brain αβ-tubulin (Cytoskeleton) in BRB-80 buffer (80 mmol/l PIPES pH 6.8, 1 mmol/l MgCl2, 1 mmol/l EGTA) and were then stabilized with 20 µmol/l taxol. The Ndc80^488 complex (0.1 µmol/l) was incubated with 100 µmol/l compound (30 min, 24°C) in 96-well polypropylene plates (Eppendorf). The 10,000 compound DIVERset library (Chembridge) and 200 compounds from the Department of Medicinal Chemistry and Technologies, University of Rome La Sapienza were used in the screen. Next, the MTs (100 nmol/l) were added to the compound-Ndc80^488 complex solution in a 1∶1 v/v ratio. After incubation (10 min, 24°C), the reaction mixtures were transferred to 96-well glass-bottom plates (Greiner Bio-one). Each well was imaged at 519 nm and 590 nm with an IX81 Olympus inverted wide-field microscope (Olympus). Total internal reflection fluorescence imaging was performed with an Olympus IX71 inverted wide-field microscope (Olympus). ImageJ was used for image processing (NIH, USA).
Taxol-stabilized MTs were prepared and diluted as described for the Ndc80^488 binding experiments. Varying compound concentrations in 10 µl of DMSO were added to 490 µl of diluted MTs at 37°C. Following incubation (30 min, 37°C), 450 µl of each mixture was centrifuged (10 min; 30,000 rpm; 37°C) in a Beckman Optima TLX centrifuge (TLA120.1 rotor). Pellets were dissolved in 25 µl of 8 mol/l urea, and the protein content of 20 µl was compared with that from pellets formed without compound.

[2] = test system: αβ-tubulin; test: Tubulin polymerization tracked turbidimetrically at 350 nm; type: biochemical; details: for IC50: 10 µmol/l αβ-tubulin, GTP-containing buffer, turbidity 350 nm, read-out: IC50 for inhibition of tubulin polymerization
Procedure: (§1) To quantify the antitubulin activity of compound B, we added 1–50 µmol/l compound B to 10 µmol/l αβ-tubulin. […] For this purpose, MTs were assembled from 10 µmol/l αβ-tubulin; 5 min into the reaction compound B was added in concentrations up to 200 µmol/l. MT depolymerization was tracked as a decrease in turbidity at 350 nm (Fig. 5B).
(§2) Polymerization of 10 µmol/l αβ-tubulin in BRB-80 buffer was monitored turbidimetrically at 350 nm for 15 min in a temperature-controlled spectrophotometer (37°C; SpectraMax Plus^384, Molecular Devices). To probe the effect of a compound on MT stability the molecule was added 5 min after initiation of tubulin assembly. The decrease in protein turbidity (350 nm) resulting from MT depolymerization was followed for 15 min at 37°C [13]. Quantitative comparisons of drug effects on tubulin assembly were also examined in 0.8 M glutamate with a 15 min drug-tubulin preincubation prior to the addition of GTP [14]. Tubulin assembly was monitored for 20 min at 30°C in Beckman DU7400/7500 spectrophotometers, and the compound concentration inhibiting tubulin assembly by 50% was determined.

[3] = test system: MTs assembled from αβ-tubulin; test: Depolymerization of non-stabilized MTs in vitro (turbidity at 350 nm); type: biochemical; details: for Fold difference between concentration inhibiting tubulin polymerization and that needed to disassemble MTs: Fig. 5B versus Fig. 5A
Procedure: as §1, §2

For `Cc1c(C(=O)OCC2CCCO2)[nH]c2c1C(=O)CC(c1ccco1)C2` (stereo not drawn) [compound B, 6-furan-2-yl-3-methyl-4-oxo-4,5,6,7,-tetrahydro-1H-indole-2-carboxylic acid tetrahydro-furan-2-ylmethyl ester], the “Taxol-stabilized MT population depolymerized” value [1] was 3%, the IC50 [2] was 5.5 µM and the “Fold difference between concentration inhibiting tubulin polymerization and that needed to disassemble MTs” value [3] was “at least 40 fold”.

In the case of `CCSCCOC(=O)c1[nH]c2c(c1C)C(=O)C[C@@H](c1ccco1)C2` [A8], the “Depolymerization of taxol-stabilized MTs” value [1] is reported as “mildly depolymerized”, the “Fold lower IC50 for inhibiting tubulin assembly than that of compound B” value ([2]; turbidimetric, versus compound B) is reported as 4.2 fold and the “Ability to depolymerize MTs, fold higher than that of compound B” value ([3]; non-stabilized MTs in vitro) is reported as 12 fold. The “Ability to depolymerize MTs, higher than that of nocodazole” value ([3]; non-stabilized MTs in vitro) was 10%.

`COC(=O)Nc1nc2ccc(C(=O)c3cccs3)cc2[nH]1` [nocodazole, reference compound] was tested, and the “Taxol-stabilized MT population depolymerized” value [1] was 11%, the IC50 [2] was […] and the “Fold more effective than compound B in inhibiting tubulin polymerization” value ([2]; versus compound B) was […]. The “Fold difference between concentration inhibiting tubulin polymerization and that needed to disassemble MTs” value [3] was […] and the “Drug:tubulin molar ratio at which MT stability is affected / MT depolymerization induced” value ([3]; MTs from 10 µmol/l αβ-tubulin, compound added 5 min into the reaction) was […].
